Results published in US8809586B2, “Modafinil compositions” (priority 2004, dated 2014).

Experiment: Solubility measured from an isopropyl acetate slurry, by HPLC
Settings: solid from solubility samples dried under nitrogen, characterized by PXRD and thermal microscopy

| Structure (SMILES) | Form conversion during solubility procedure |
| --- | --- |
| NC(=O)C[S@@+]([O-])C(c1ccccc1)c1ccccc1 [R-(−)-modafinil Form IV, R-(−)-2-[(Diphenylmethyl)sulfinyl]acetamide] | Form conversion was not observed |
| NC(=O)C[S@@+]([O-])C(c1ccccc1)c1ccccc1 [R-(−)-modafinil Form V, R-(−)-2-[(Diphenylmethyl)sulfinyl]acetamide] | Form conversion was not observed |
| NC(=O)C[S@@+]([O-])C(c1ccccc1)c1ccccc1 [R-(−)-modafinil Form III, R-(−)-2-[(Diphenylmethyl)sulfinyl]acetamide] | Form conversion was not observed |
